Values joined by “and” are separate entries in the source; they are usually repeats but may differ in a detail not shown here. Equal values may be shown once. Read-outs that look alike come from different tables or passages of the source.
How the values were obtained:
[1] = molecular target: T1, GluN1-K178AzF/GluN2B receptors (UniProt P35439+Q01097); experiment: TEVC recordings in Xenopus oocytes, modulator sensitivity before and after UV photocrosslinking; format: cell-based, rat (GluN1), mouse (GluN2B); conditions: read-out: Zn2+ IC50
T1 construct: For full-length multimeric membrane-embedded receptors studied in cellulo, as done in the present work; expressed in transfected cells; host or cells: Xenopus laevis oocytes, co-injected with amber suppressor tRNA (Yam) and AzF-RS
Procedure: (§1) The pcDNA3-based expression plasmids for rat GluN1-1a (named GluN1 herein), rat GluN2A, and mouse GluN2B (also known as ε2) subunits, Pfu-based site-directed mutagenesis strategy, and sequencing procedure have been described previously[68],[69]. Incorporation of the unnatural amino acids (UAAs) AzF and BzF into NMDARs was performed using the genetic code expansion methodology as previously described[52],[53],[83]. The plasmid pSVB.Yam carrying the gene encoding the amber suppressor tRNA derived from B. stearothermophilus Tyr-tRNACUA, while the aminoacyl-tRNA synthetases (aaRS) construction for AzF and BzF derived from E. coli TyrRS[84],[85].
(§2) Recombinant NMDARs were expressed in Xenopus laevis oocytes after nuclear injection of 36 nl of a mixture of cDNAs (at 10–30 ng/μl) encoding various GluN1 and GluN2 subunits (ratio 1:1). Oocytes were prepared, injected, incubated, and voltage-clamped as described previously. For UAA incorporation, oocytes were co-injected with 36 nl of a cDNA mixture encoding for of GluN1, GluN2, Yam, and aaRS as follows, unless otherwise indicated in the text: GluN1-K178amber (120 ng/μl), GluN2A (80 ng/µl) or GluN2B (120 ng/μl), Yam (10 ng/μl), AzF-RS (5 ng/μl). After injection, oocytes were incubated at 19 °C in a Barth solution containing (in mM) 88 NaCl, 1 KCl, 0.33 Ca(NO3)2, 0.41 CaCl2, 0.82 MgSO4, 2.4 NaHCO3, 10 HEPES (pH adjusted to 7.6 with NaOH) supplemented with gentamicin ([…]) and the NMDAR glutamate binding site competitive antagonist D-APV (50 μM). AzF and BzF were added to the incubation medium at final concentrations of 1 mM and 2 mM, respectively.
(§3) For all experiments, except those on pH and spermine sensitivity, the standard external solution contained (in mM): 100 NaCl, 0.3 BaCl2, and 5 HEPES (pH adjusted to 7.3 with KOH). […] For the pH and spermine sensitivity experiments, an external solution enriched in HEPES was used to insure proper pH buffering. Unless otherwise mentioned, NMDAR-mediated currents were induced by simultaneously applications of saturating concentrations of glutamate and glycine (100 μM each). Glutamate and glycine dose-response curves (DRC) were performed in the presence of 100 µM glycine and 100 µM glutamate, respectively. Recordings were performed at a holding potential of −60 mV and at room temperature. Data were collected and analyzed using Clampex 10.5 and Clampfit 10.5 (Molecular Devices), respectively, and fitted using KaleidaGraph 4.0 (Synergy software).
(§4) EC50 and nH were fitted as free parameters. […] For proton DRC, corrections for small shifts in the reference potential of bath electrodes and analysis of the data were performed as previously described. Spermine experiments were performed and analyzed as previously described. In brief, spermine sensitivity was assessed at pH 6.5 and at a holding potential of −30 mV to maximize the spermine induced potentiation. […] EC50, a and nH were set as free parameters. MK-801 is an NMDAR open channel blocker with slow reversibility and, consequently, the rate at which MK-801 inhibits NMDAR responses depends on the level of channel activity, that is, channel open probability (Po). Based on this principle, MK-801 is classically used to estimate the level of NMDAR channel activity in macroscopic whole-cell recordings[36],[47],[56],[86],[87]. Note, however, that MK- 801 inhibition kinetics can index relative, not absolute, Po. MK-801 solutions (10 nM for GluN2A-containing receptors and 50 nM for GluN2B-containing receptors) were prepared by dilution of a stock solution (50 mM) into the agonist containing solutions. MK-801 time constants of inhibition (τon) were obtained by fitting currents with a single-exponential component to a time window corresponding to 10–90% of maximum inhibition. On-rate (kon) constants were then calculated assuming a pseudo first-order reaction scheme: kon = 1 / ([MK-801]*τon).

[2] = molecular target: T2, GluN1-K178AzF/GluN2B receptors (UniProt P35439+Q01097, K178F); experiment: as above; format: cell-based, rat (GluN1), mouse (GluN2B); conditions: for Izn/Io 0.1 μM: 0.1 μM zinc; for Izn/Io 1 μM: 1 μM zinc; for Izn/Io 10 μM: 10 μM zinc
T2 construct: For full-length multimeric membrane-embedded receptors studied in cellulo, as done in the present work; expressed in transfected cells; host or cells: Xenopus laevis oocytes, co-injected with amber suppressor tRNA (Yam) and AzF-RS
T2 sequence (Q01097 27-1482, other chains not shown): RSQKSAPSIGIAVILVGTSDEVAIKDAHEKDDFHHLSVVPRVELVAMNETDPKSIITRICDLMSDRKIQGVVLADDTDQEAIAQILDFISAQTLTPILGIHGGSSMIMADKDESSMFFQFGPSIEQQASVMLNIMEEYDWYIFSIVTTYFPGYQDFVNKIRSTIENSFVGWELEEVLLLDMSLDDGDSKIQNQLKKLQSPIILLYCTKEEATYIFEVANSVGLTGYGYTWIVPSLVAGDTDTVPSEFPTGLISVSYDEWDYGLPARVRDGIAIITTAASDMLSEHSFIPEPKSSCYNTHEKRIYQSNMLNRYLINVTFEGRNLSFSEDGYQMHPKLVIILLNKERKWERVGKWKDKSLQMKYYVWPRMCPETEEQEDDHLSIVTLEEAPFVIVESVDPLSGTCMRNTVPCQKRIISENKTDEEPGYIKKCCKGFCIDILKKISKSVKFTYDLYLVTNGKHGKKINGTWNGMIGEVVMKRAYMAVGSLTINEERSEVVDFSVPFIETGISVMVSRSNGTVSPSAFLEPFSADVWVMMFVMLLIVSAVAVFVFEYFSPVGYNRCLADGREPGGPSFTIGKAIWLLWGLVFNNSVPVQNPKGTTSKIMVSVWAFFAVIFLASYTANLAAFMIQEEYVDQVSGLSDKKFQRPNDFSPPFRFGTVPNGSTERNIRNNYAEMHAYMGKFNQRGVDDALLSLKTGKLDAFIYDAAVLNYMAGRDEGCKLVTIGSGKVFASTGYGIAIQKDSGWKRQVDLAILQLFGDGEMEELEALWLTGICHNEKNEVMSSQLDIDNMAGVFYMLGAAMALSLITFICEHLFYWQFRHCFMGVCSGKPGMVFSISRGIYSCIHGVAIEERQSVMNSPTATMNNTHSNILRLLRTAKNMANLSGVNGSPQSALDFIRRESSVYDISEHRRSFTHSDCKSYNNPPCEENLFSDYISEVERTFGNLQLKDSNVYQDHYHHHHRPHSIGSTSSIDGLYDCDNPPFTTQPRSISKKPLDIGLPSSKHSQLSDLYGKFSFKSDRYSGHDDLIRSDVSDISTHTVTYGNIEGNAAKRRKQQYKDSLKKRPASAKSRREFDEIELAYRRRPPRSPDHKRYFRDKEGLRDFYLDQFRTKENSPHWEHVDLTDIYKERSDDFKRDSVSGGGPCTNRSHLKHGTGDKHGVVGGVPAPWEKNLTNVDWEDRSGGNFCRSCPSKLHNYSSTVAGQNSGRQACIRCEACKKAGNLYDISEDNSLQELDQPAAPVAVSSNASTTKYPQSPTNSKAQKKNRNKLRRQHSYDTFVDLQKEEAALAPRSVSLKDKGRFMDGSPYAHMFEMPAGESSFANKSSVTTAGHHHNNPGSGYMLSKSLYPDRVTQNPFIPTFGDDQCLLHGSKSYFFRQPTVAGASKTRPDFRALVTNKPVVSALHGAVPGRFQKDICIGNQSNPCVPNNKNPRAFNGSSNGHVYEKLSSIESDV
Procedure: as §1, §2, §3, §4

[3] = molecular target: T3, wild-type (wt) GluN1/GluN2B receptors (UniProt P35439+Q01097); experiment: TEVC recordings in Xenopus oocytes, allosteric modulator sensitivity; format: cell-based, rat (GluN1), mouse (GluN2B)
T3 construct: For full-length multimeric membrane-embedded receptors studied in cellulo, as done in the present work; expressed in transfected cells; host or cells: Xenopus laevis oocytes (nuclear cDNA injection, pcDNA3 plasmids)
T3 sequence (Q01097 27-1482, other chains not shown): as above
Procedure: as §1, §2, §3, §4

[4] = molecular target: T4, GluN1-N521C-L777C/GluN2A-E516C-L780C (CC/CC) receptors (Rattus norvegicus, UniProt P35439+Q00959, E516C/L777C/L780C/N521C); experiment: TEVC recordings in Xenopus oocytes, zinc sensitivity; format: cell-based
T4 construct: For full-length multimeric membrane-embedded receptors studied in cellulo, as done in the present work; expressed in transfected cells; host or cells: Xenopus laevis oocytes
Procedure: as §1, §2, §3, §4

[5] = molecular target: T5, GluN1-K178AzF/GluN2A receptors (Rattus norvegicus, UniProt P35439+Q00959); experiment: TEVC recordings in Xenopus oocytes, modulator sensitivity before and after UV photocrosslinking; format: cell-based; conditions: read-out: Zn2+ IC50
T5 construct: For full-length multimeric membrane-embedded receptors studied in cellulo, as done in the present work; expressed in transfected cells; host or cells: Xenopus laevis oocytes, co-injected with amber suppressor tRNA (Yam) and AzF-RS
Procedure: as §1, §2, §3, §4

[6] = molecular target: T6, GluN1-K178AzF/GluN2A receptors (Rattus norvegicus, UniProt P35439+Q00959, K178F); experiment: as above; format: cell-based; conditions: for Izn/Io 1 nM: 1 nM zinc; for Izn/Io 10 nM: 10 nM zinc; for Izn/Io 1000 nM: 1000 nM zinc
T6 construct: For full-length multimeric membrane-embedded receptors studied in cellulo, as done in the present work; expressed in transfected cells; host or cells: Xenopus laevis oocytes, co-injected with amber suppressor tRNA (Yam) and AzF-RS
T6 sequence (Q00959 23-1464, other chains not shown): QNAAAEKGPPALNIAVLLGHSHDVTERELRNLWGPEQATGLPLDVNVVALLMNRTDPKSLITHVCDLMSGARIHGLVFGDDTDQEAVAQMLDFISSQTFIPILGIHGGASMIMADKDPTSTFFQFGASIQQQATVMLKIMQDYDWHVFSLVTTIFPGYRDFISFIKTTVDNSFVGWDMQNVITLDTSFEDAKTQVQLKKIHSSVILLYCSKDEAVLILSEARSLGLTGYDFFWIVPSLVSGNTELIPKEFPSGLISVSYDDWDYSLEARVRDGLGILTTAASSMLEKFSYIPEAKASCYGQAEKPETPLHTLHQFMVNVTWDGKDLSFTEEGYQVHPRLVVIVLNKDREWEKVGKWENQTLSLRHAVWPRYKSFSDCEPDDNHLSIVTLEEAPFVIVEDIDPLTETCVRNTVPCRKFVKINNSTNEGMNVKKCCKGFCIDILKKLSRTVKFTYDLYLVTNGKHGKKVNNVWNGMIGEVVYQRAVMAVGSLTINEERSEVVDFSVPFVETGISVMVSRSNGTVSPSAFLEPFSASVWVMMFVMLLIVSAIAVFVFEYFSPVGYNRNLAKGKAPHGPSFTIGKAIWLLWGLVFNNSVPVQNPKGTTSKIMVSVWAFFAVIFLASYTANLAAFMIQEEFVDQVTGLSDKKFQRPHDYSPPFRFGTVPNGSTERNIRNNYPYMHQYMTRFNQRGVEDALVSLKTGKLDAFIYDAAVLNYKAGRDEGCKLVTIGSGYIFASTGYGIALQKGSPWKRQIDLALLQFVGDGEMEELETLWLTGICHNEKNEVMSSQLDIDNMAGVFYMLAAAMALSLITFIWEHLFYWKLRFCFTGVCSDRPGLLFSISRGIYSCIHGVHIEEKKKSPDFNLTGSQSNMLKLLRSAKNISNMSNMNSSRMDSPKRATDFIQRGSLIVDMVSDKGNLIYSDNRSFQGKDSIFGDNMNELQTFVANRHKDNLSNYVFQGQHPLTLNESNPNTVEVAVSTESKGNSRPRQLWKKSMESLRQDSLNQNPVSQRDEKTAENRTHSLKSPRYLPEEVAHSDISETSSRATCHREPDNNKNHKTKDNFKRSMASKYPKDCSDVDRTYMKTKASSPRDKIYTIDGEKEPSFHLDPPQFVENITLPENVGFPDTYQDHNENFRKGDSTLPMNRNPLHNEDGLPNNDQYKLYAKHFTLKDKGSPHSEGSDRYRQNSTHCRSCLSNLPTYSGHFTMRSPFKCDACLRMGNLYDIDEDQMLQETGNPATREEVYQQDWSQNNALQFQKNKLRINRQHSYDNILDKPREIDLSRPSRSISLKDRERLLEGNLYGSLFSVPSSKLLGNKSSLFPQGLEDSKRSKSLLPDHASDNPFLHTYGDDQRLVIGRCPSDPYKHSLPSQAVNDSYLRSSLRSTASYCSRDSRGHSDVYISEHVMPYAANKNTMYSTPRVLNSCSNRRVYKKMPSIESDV
Procedure: as §1, §2, §3, §4

## [Zn+2] [zinc]
[1]; after UV
  IC50: 7960 ± 160 nM
[1]; before UV
  IC50: 540 ± 10 nM
[2]; +UV
  Izn/Io 0.1 μM: 0.97 ± 0.02
  Izn/Io 1 μM: 0.86 ± 0.03
  Izn/Io 10 μM: 0.45 ± 0.08
[2]; -UV
  Izn/Io 0.1 μM: 0.73 ± 0.09
  Izn/Io 1 μM: 0.33 ± 0.05
  Izn/Io 10 μM: 0.04 ± 0.01
[2]; after UV
  Zn2+ Hill slope (nH): 0.91 ± 0.02
[2]; before UV
  Zn2+ Hill slope (nH): 1.02 ± 0.02
[2]; post-UV vs pre-UV
  increase in zinc IC50 following UV treatment: ~ 15 fold
[3]
  Zn2+ Hill slope (nH): 1.08 ± 0.04 and 1.20 ± 0.04 and 0.96 ± 0.10
[3]; 0.1 μM zinc
  Izn/Io 0.1 μM: 0.80 ± 0.02 and 0.87 ± 0.02 and 0.78 ± 0.01
[3]; 0.3 μM zinc
  Izn/Io 0.3 μM: 0.54 ± 0.03
[3]; 1 μM zinc
  Izn/Io 1 μM: 0.39 ± 0.005 and 0.46 ± 0.03 and 0.37 ± 0.03
[3]; 3 μM zinc
  Izn/Io 3 μM: 0.18 ± 0.09
[3]; read-out: Zn2+ IC50
  IC50: 720 nM and 970 nM and 590 nM
[4]
  Zn2+ Hill slope (nH): 0.40 ± 0.11
  Zn2+ maximal inhibition: 0.37 ± 0.04
[4]; 1 nM zinc
  Izn/Io 1 nM: 0.86 ± 0.01
[4]; 5 nM zinc
  Izn/Io 5 nM: 0.81 ± 0.02
[4]; 50 nM zinc
  Izn/Io 50 nM: 0.72 ± 0.03
[4]; 500 nM zinc
  Izn/Io 500 nM: 0.66 ± 0.04
[4]; 1000 nM zinc
  Izn/Io 1000 nM: 0.68 ± 0.01
[4]; read-out: Zn2+ IC50
  IC50: 3.44 ± 2.03 nM
[5]; after UV
  IC50: 7.69 ± 0.17 nM
[5]; before UV
  IC50: 7.43 ± 1.1 nM
[6]; +UV
  Izn/Io 1 nM: 0.94 ± 0.01
  Izn/Io 10 nM: 0.70 ± 0.02
  Izn/Io 1000 nM: 0.48 ± 0.04
[6]; -UV
  Izn/Io 1 nM: 0.91 ± 0.02
  Izn/Io 10 nM: 0.60 ± 0.01
  Izn/Io 1000 nM: 0.30 ± 0.03
[6]; after UV
  Zn2+ Hill slope (nH): 1.05 ± 0.07
  Zn2+ maximal inhibition: 0.52 ± 0.04
[6]; before UV
  Zn2+ Hill slope (nH): 0.99 ± 0.09
  Zn2+ maximal inhibition: 0.70 ± 0.03

Source: publication PMC8342458, “GluN2A and GluN2B NMDA receptors use distinct allosteric routes” (Nature Communications, 2021)
